Data taken from the NIST ThermoML archive (doi:10.1016/j.jct.2008.06.001).

Experiments:
[1] = 101.33 kPa, Liquid; for speed of sound: Sing-around technique in a fixed-path interferometer
[2] = xn = mol fraction of the nth substance listed; conditions: 101 kPa, Liquid

CCCCCCCCCCO [decan-1-ol]
[1]
Conditions | mass density [kg/m3] | speed of sound [m/s]
293.15 K | 829.601 | 1396.2
298.15 K | 826.198 | 1378.9
303.15 K | 822.767 | 1361.7

CCCCCCCCCCO [decan-1-ol] + CCCCOCCCC
[2]
Conditions | mass density [kg/m3]
293.15 K, x1 = 0.1021 | 776.363
293.15 K, x1 = 0.1496 | 779.787
293.15 K, x1 = 0.1993 | 783.289
293.15 K, x1 = 0.25 | 786.71
293.15 K, x1 = 0.2996 | 789.984
293.15 K, x1 = 0.3412 | 792.683
293.15 K, x1 = 0.3978 | 796.258
293.15 K, x1 = 0.4468 | 799.27
293.15 K, x1 = 0.4978 | 802.397
293.15 K, x1 = 0.5495 | 805.461
293.15 K, x1 = 0.6009 | 808.42
293.15 K, x1 = 0.65 | 811.195
293.15 K, x1 = 0.6993 | 813.929
293.15 K, x1 = 0.7464 | 816.506
293.15 K, x1 = 0.7946 | 819.104
293.15 K, x1 = 0.8488 | 821.951
293.15 K, x1 = 0.9004 | 824.616
293.15 K, x1 = 0.95 | 827.118
298.15 K, x1 = 0.0516 | 768.307
298.15 K, x1 = 0.1006 | 772.051
298.15 K, x1 = 0.1498 | 775.68
298.15 K, x1 = 0.2012 | 779.315
298.15 K, x1 = 0.2522 | 782.834
298.15 K, x1 = 0.2996 | 786.011
298.15 K, x1 = 0.35 | 789.331
298.15 K, x1 = 0.3994 | 792.479
298.15 K, x1 = 0.4479 | 795.536
298.15 K, x1 = 0.4981 | 798.656
298.15 K, x1 = 0.5512 | 801.843
298.15 K, x1 = 0.5993 | 804.66
298.15 K, x1 = 0.6492 | 807.539
298.15 K, x1 = 0.6995 | 810.378
298.15 K, x1 = 0.7501 | 813.185
298.15 K, x1 = 0.7981 | 815.763
298.15 K, x1 = 0.8498 | 818.511
298.15 K, x1 = 0.9001 | 821.147
298.15 K, x1 = 0.9498 | 823.681
303.15 K, x1 = 0.0509 | 763.957
303.15 K, x1 = 0.1009 | 767.841
303.15 K, x1 = 0.1503 | 771.536
303.15 K, x1 = 0.1994 | 775.085
303.15 K, x1 = 0.25 | 778.691
303.15 K, x1 = 0.2996 | 782.028
303.15 K, x1 = 0.3498 | 785.36
303.15 K, x1 = 0.3992 | 788.589
303.15 K, x1 = 0.4451 | 791.54
303.15 K, x1 = 0.4944 | 794.601
303.15 K, x1 = 0.5509 | 798.05
303.15 K, x1 = 0.5921 | 800.526
303.15 K, x1 = 0.6514 | 803.989
303.15 K, x1 = 0.6896 | 806.226
303.15 K, x1 = 0.7493 | 809.528
303.15 K, x1 = 0.7963 | 812.111
303.15 K, x1 = 0.8475 | 814.866
303.15 K, x1 = 0.899 | 817.595
303.15 K, x1 = 0.9474 | 820.099

CCCCCCCO [heptan-1-ol]
[1]
Conditions | mass density [kg/m3] | speed of sound [m/s]
293.15 K | 822.398 | 1344
298.15 K | 818.894 | 1326.7
303.15 K | 815.357 | 1309.9

CCCCCCCO [heptan-1-ol] + CCCCOCCCC
[2]
Conditions | mass density [kg/m3]
293.15 K, x1 = 0.1017 | 773.953
293.15 K, x1 = 0.1519 | 776.565
293.15 K, x1 = 0.1998 | 779.042
293.15 K, x1 = 0.2503 | 781.671
293.15 K, x1 = 0.3495 | 786.842
293.15 K, x1 = 0.4019 | 789.598
293.15 K, x1 = 0.4529 | 792.309
293.15 K, x1 = 0.5013 | 794.907
293.15 K, x1 = 0.548 | 797.412
293.15 K, x1 = 0.6032 | 800.39
293.15 K, x1 = 0.6486 | 802.884
293.15 K, x1 = 0.7001 | 805.686
293.15 K, x1 = 0.7515 | 808.582
293.15 K, x1 = 0.7771 | 809.94
293.15 K, x1 = 0.8009 | 811.278
293.15 K, x1 = 0.8982 | 816.689
293.15 K, x1 = 0.947 | 819.42
298.15 K, x1 = 0.0513 | 767.002
298.15 K, x1 = 0.0991 | 769.571
298.15 K, x1 = 0.1526 | 772.412
298.15 K, x1 = 0.2019 | 775.005
298.15 K, x1 = 0.2506 | 777.565
298.15 K, x1 = 0.3033 | 780.366
298.15 K, x1 = 0.3498 | 782.806
298.15 K, x1 = 0.4 | 785.5
298.15 K, x1 = 0.4523 | 788.317
298.15 K, x1 = 0.4995 | 790.883
298.15 K, x1 = 0.5491 | 793.589
298.15 K, x1 = 0.6026 | 796.53
298.15 K, x1 = 0.6503 | 799.167
298.15 K, x1 = 0.6985 | 801.859
298.15 K, x1 = 0.7533 | 804.902
298.15 K, x1 = 0.8005 | 807.562
298.15 K, x1 = 0.8485 | 810.291
298.15 K, x1 = 0.8994 | 813.176
298.15 K, x1 = 0.9439 | 815.703
303.15 K, x1 = 0.0548 | 762.859
303.15 K, x1 = 0.1037 | 765.526
303.15 K, x1 = 0.1537 | 768.203
303.15 K, x1 = 0.2034 | 770.861
303.15 K, x1 = 0.2496 | 773.336
303.15 K, x1 = 0.3003 | 776.062
303.15 K, x1 = 0.3482 | 778.634
303.15 K, x1 = 0.3977 | 781.333
303.15 K, x1 = 0.4501 | 784.185
303.15 K, x1 = 0.4938 | 786.627
303.15 K, x1 = 0.5487 | 789.635
303.15 K, x1 = 0.6009 | 792.536
303.15 K, x1 = 0.6508 | 795.355
303.15 K, x1 = 0.6994 | 798.099
303.15 K, x1 = 0.7519 | 801.07
303.15 K, x1 = 0.8005 | 803.865
303.15 K, x1 = 0.851 | 806.755
303.15 K, x1 = 0.8994 | 809.543
303.15 K, x1 = 0.946 | 812.239

CCCCCCCCO [octan-1-ol]
[1]
Conditions | mass density [kg/m3] | speed of sound [m/s]
293.15 K | 825.183 | 1364.3
298.15 K | 821.732 | 1347.1
303.15 K | 818.248 | 1330.2
